Experiment [1] deals with Dihydroorotate dehydrogenase (quinone), mitochondrial (Homo sapiens, UniProt Q02127). As to the kind of experiment: Inhibition of human DHODH using dihydroorotate as substrate and Q6 as coenzyme by DCIP dye based spectrophotometry analysis.
Another experiment has as its system MOLM-13. Put plainly: Antiproliferative activity against human MOLM-13 cells incubated for 72 hrs by CellTiter-Glo based multilabel reader analysis. Format: functional, cell-based. The conditions noted are these: MOLM-13, 72 h. Background: In ATP-based viability assays light output follows the ATP content of the culture.

The source of these data is ChEMBL document CHEMBL5131533, “Indazole and Benzoisoxazole Compounds as Dihydroorotate Dehydrogenase Inhibitors for Treating Acute Myelogenous Leukemia” (ACS Med Chem Lett, 2022).

pIC50: −log10 of the molar value.

Sequence of Dihydroorotate dehydrogenase (quinone), mitochondrial (Q02127 whole entry): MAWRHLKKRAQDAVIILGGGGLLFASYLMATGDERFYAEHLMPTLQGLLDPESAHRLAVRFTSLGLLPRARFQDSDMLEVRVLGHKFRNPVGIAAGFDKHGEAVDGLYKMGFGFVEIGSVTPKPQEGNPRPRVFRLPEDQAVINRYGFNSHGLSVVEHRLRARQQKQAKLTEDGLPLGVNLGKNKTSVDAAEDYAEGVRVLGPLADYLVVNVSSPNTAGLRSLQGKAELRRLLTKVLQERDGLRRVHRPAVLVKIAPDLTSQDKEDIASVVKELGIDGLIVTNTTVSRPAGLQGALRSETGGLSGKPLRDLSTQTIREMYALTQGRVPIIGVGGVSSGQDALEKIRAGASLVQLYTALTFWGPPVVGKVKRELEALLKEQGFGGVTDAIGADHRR

The pIC50 is −log10 of the IC50, conventionally taken in molar units. As for `CCn1c(CO)nn(-c2cc(O[C@@H](C)C(F)(F)F)c3c(Nc4c(C)ccnc4Cl)nn(C)c3c2F)c1=O`, the pIC50 in experiment [1] is 8.70; with MOLM-13, 8.24.
Regarding `CCn1c(CO)nn(-c2cc(O[C@@H](C)C(F)(F)F)c3c(Nc4c(F)cccc4Cl)nn(C)c3c2F)c1=O`, the pIC50 in experiment [1] was 8.70; with MOLM-13 it was 9.15.
As for `CCn1c(CO)nn(-c2cc(OC(C)C(F)(F)F)c3c(Nc4c(F)cccc4Cl)nn(C)c3c2)c1=O` (configuration not stated), the figures for the negative logarithm of the IC50 (pIC50) (in experiment [1]; with MOLM-13) were 8.10 and 8.52, respectively.
In the case of `CCn1c(CO)nn(-c2cc(OC(C)C(F)(F)F)c3c(Nc4c(F)cccc4Cl)nn(C)c3c2F)c1=O` (configuration not stated), the results for the pIC50 (in experiment [1]; with MOLM-13) were 8.52 and 8.92, respectively.
Take `CCn1c(CO)nn(-c2cc(O[C@@H](C)C(F)(F)F)c3c(Nc4c(F)cccc4Cl)noc3c2F)c1=O`: the negative logarithm of the IC50 (pIC50) is 8.70 in experiment [1] and 9.15 in the experiment with MOLM-13.
Regarding `Cc1ccnc(Cl)c1Nc1nn(C)c2c(F)c(-c3cn(C)c(C(C)(C)O)n3)cc(O[C@@H](C)C(F)(F)F)c12`, the pIC50 is 9.00 in experiment [1] and 10.00 in the experiment with MOLM-13.
